Source: US9150575B2, “Piperidinylpyrazolopyridine derivative” (Daiichi Sankyo Company, Limited, priority 2012, dated 2015)
Counter-ions that a name gives are not always drawn.

Target: T1, LCAT (Homo sapiens, UniProt P04180)
T1 construct: The obtained fraction was dialyzed against phosphate-buffered saline (pH 7.4) and used as an enzyme source and an acceptor for LCAT; from tissue; host or cells: HDL3 fraction (1.125<specific gravity<1.210 g/mL) of plasma from a healthy person
T1 sequence (P04180 25-440): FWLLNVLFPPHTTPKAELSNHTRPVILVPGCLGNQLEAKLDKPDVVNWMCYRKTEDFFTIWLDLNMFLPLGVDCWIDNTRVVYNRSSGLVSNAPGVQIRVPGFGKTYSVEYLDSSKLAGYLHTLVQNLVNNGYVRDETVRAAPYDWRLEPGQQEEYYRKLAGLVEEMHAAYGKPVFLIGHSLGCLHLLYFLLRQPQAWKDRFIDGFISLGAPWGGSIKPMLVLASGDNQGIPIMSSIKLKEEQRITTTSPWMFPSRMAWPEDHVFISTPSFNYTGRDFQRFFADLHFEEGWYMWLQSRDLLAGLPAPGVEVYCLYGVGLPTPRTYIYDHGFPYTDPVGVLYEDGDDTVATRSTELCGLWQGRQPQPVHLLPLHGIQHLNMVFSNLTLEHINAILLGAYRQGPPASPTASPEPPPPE
Experiment: LCAT Activity Measurement (In Vitro)
Type: biochemical
Conditions: EC50 of LCAT activation; HDL3 fraction from plasma of a healthy person as enzyme source and acceptor; [14C]cholesterol; 37° C., approximately 16 hours
Procedure: A fraction composed of HDL3 (1.125<specific gravity<1.210 g/mL) was obtained from the plasma of a healthy person by density gradient centrifugation. The obtained fraction was dialyzed against phosphate-buffered saline (pH 7.4) and used as an enzyme source and an acceptor for LCAT. Each test drug was prepared by dissolution in dimethyl sulfoxide. [14C]Cholesterol containing DTNB (Ellman's reagent, final concentration: 0.5 mM), mercaptoethanol (final concentration: 12.5 mM), and 0.6% bovine serum albumin was added to phosphate-buffered saline (pH 7.4) containing 1 mg/mL HDL3, and the test drug was further added thereto at varying concentrations to adjust the whole amount to 80 μL. This mixture was incubated at 37° C. for approximately 16 hours. Then, a mixed solution of hexane and isopropanol (mixing ratio=3:2) was added thereto to stop the reaction. After stirring, the hexane layer was collected, and this layer was evaporated to dryness. A chloroform solution (concentration: 10 mg/mL) was added thereto, and the mixture was spotted onto a thin-layer silica gel plate and developed using a mixed solution of hexane, diethyl ether, and ethyl acetate (mixing ratio=85:15:2). The radioactivity of a portion corresponding to cholesterol oleate was measured using an imaging analyzer BAS-2500 (manufactured by Fujifilm Corp.). A sample non-supplemented with the test drug was similarly treated and assayed. The EC50 value of LCAT activation was calculated according to the expression given below relative to LCAT activity in the sample non-supplemented with the test drug.
wherein X represents the logarithm of the concentration of the test drug;
Y represents the responsiveness (LCAT activity) of the test drug;
Top represents the maximum value (maximum plateau);
Bottom represents the minimum value (minimum plateau); and
EC50 represents the 50% effective concentration.

In the case of O=C1CC(O)(C(F)(F)F)c2c(C3CCN(c4cc(I)c(C(F)(F)F)cn4)CC3)n[nH]c2N1 (single isomer, unassigned) [Compound 103-1, 4-hydroxy-3-{1-[4-iodo-5-(trifluoromethyl)pyridin-2-yl]piperidin-4-yl}-4-(trifluoromethyl)-1,4,5,7-tetrahydro-6H-pyrazolo[3,4-b]pyridin-6-one], the EC50 is reported as 27 nM.
For O=C1CC(O)(C(F)(F)F)c2c(C3CCN(c4cc(I)c(C(F)(F)F)cn4)CC3)n[nH]c2N1 (single isomer, unassigned) [Compound 103-2, 4-hydroxy-3-{1-[4-iodo-5-(trifluoromethyl)pyridin-2-yl]piperidin-4-yl}-4-(trifluoromethyl)-1,4,5,7-tetrahydro-6H-pyrazolo[3,4-b]pyridin-6-one], the EC50 was 530 nM.
With O=C1CC(O)(C(F)(F)F)c2c(C3CCN(c4ccc(C(F)(F)F)cn4)CC3)n[nH]c2N1 (single isomer, unassigned; (+)) [Compound 49-2, (+)-4-hydroxy-4-(trifluoromethyl)-3-{1-[5-(trifluoromethyl)pyridin-2-yl]piperidin-4-yl}-1,4,5,7-tetrahydro-6H-pyrazolo[3,4-b]pyridin-6-one] the EC50 was 3770 nM.
O=C1CC(O)(C(F)(F)F)c2c(C3CCN(c4ccc(OC(F)F)cc4)CC3)n[nH]c2N1 (single isomer, unassigned; (+)) [Compound 56-2, (+)-3-{1-[4-(difluoromethoxy)phenyl]piperidin-4-yl}-4-hydroxy-4-(trifluoromethyl)-1,4,5,7-tetrahydro-6H-pyrazolo[3,4-b]pyridin-6-one] gave an EC50 of 980 nM.
Work on O=C1CC(O)(C(F)(F)F)c2c(C3CCN(c4ccc(C(F)(F)F)cn4)CC3)n[nH]c2N1 (single isomer, unassigned; (-)) [Compound 49-1, (−)-4-Hydroxy-4-(trifluoromethyl)-3-{1-[5-(trifluoromethyl)pyridin-2-yl]piperidin-4-yl}-1,4,5,7-tetrahydro-6H-pyrazolo[3,4-b]pyridin-6-one] yielded an EC50 of 18 nM.
In the case of O=C1CC(O)(C(F)(F)F)c2c(C3CCN(c4nc(C(F)(F)F)cs4)CC3)n[nH]c2N1 (stereo not drawn) [Compound 48-a, 4-Hydroxy-4-(trifluoromethyl)-3-{1-[4-(trifluoromethyl)-1,3-thiazol-2-yl]piperidin-4-yl}-1,4,5,7-tetrahydro-6H-pyrazolo[3,4-b]pyridin-6-one], the EC50 is reported as 80 nM.
Compound O=C1CC(O)(C(F)(F)F)c2c(C3CCN(c4nc(C(F)(F)F)c(-c5nc(C(F)(F)F)cs5)s4)CC3)n[nH]c2N1 (stereo not drawn) [Compound 48-b, 3-{1-[4,4′-bis(trifluoromethyl)-2,5′-bi-1,3-thiazol-2′-yl]piperidin-4-yl}-4-hydroxy-4-(trifluoromethyl)-1,4,5,7-tetrahydro-6H-pyrazolo[3,4-b]pyridin-6-one] has an EC50 of 46 nM.
Compound O=C1CC(O)(C(F)(F)F)c2c(C3CCN(c4ccc(C(F)(F)F)c(Cl)n4)CC3)n[nH]c2N1 (stereo not drawn) [Compound 98-a, 3-{1-[6-Chloro-5-(trifluoromethyl)pyridin-2-yl]piperidin-4-yl}-4-hydroxy-4-(trifluoromethyl)-1,4,5,7-tetrahydro-6H-pyrazolo[3,4-b]pyridin-6-one] has an EC50 of 23 nM.
O=C1CC(O)(C(F)(F)F)c2c(C3CCN(c4nc(Cl)ccc4C(F)(F)F)CC3)n[nH]c2N1 (stereo not drawn) [Compound 98-b, 3-{1-[6-chloro-3-(trifluoromethyl)pyridin-2-yl]piperidin-4-yl}-4-hydroxy-4-(trifluoromethyl)-1,4,5,7-tetrahydro-6H-pyrazolo[3,4-b]pyridin-6-one] showed an EC50 of 510 nM.
O=C1CC(O)(C(F)(F)F)c2c(C3CCN(c4ccccc4)CC3)n[nH]c2N1 (stereo not drawn) [Example 1, 4-Hydroxy-3-(1-phenylpiperidin-4-yl)-4-(trifluoromethyl)-1,4,5,7-tetrahydro-6H-pyrazolo[3,4-b]pyridin-6-one] gave an EC50 of 1510 nM.
O=C1CC(O)(C(F)(F)F)c2c(C3CCN(c4ccccn4)CC3)n[nH]c2N1 (stereo not drawn) [Example 2, 4-Hydroxy-3-[1-(pyridin-2-yl)piperidin-4-yl]-4-(trifluoromethyl)-1,4,5,7-tetrahydro-6H-pyrazolo[3,4-b]pyridin-6-one] was tested, and the EC50 was 520 nM.
Work on Cc1cccc(N2CCC(c3n[nH]c4c3C(O)(C(F)(F)F)CC(=O)N4)CC2)n1 (stereo not drawn) [Example 3, 4-Hydroxy-3-[1-(6-methylpyridin-2-yl)piperidin-4-yl]-4-(trifluoromethyl)-1,4,5,7-tetrahydro-6H-pyrazolo[3,4-b]pyridin-6-one] yielded an EC50 of 630 nM.
Work on Cc1ccc(N2CCC(c3n[nH]c4c3C(O)(C(F)(F)F)CC(=O)N4)CC2)nc1 (stereo not drawn) [Example 4, 4-Hydroxy-3-[1-(5-methylpyridin-2-yl)piperidin-4-yl]-4-(trifluoromethyl)-1,4,5,7-tetrahydro-6H-pyrazolo[3,4-b]pyridin-6-one] yielded an EC50 of 250 nM.
In the case of Cc1ccnc(N2CCC(c3n[nH]c4c3C(O)(C(F)(F)F)CC(=O)N4)CC2)c1 (stereo not drawn) [Example 5, 4-Hydroxy-3-[1-(4-methylpyridin-2-yl)piperidin-4-yl]-4-(trifluoromethyl)-1,4,5,7-tetrahydro-6H-pyrazolo[3,4-b]pyridin-6-one], the EC50 is reported as 290 nM.
For Cc1cccnc1N1CCC(c2n[nH]c3c2C(O)(C(F)(F)F)CC(=O)N3)CC1 (stereo not drawn) [Example 6, 4-Hydroxy-3-[1-(3-methylpyridin-2-yl)piperidin-4-yl]-4-(trifluoromethyl)-1,4,5,7-tetrahydro-6H-pyrazolo[3,4-b]pyridin-6-one], the EC50 was 1260 nM.
O=C1CC(O)(C(F)(F)F)c2c(C3CCN(c4ncccc4C(F)(F)F)CC3)n[nH]c2N1 (stereo not drawn) [Example 9, 4-Hydroxy-4-(trifluoromethyl)-3-{1-[3-(trifluoromethyl)pyridin-2-yl]piperidin-4-yl}-1,4,5,7-tetrahydro-6H-pyrazolo[3,4-b]pyridin-6-one] gave an EC50 of 1150 nM.
With O=C1CC(O)(C(F)(F)F)c2c(C3CCN(c4ncccc4Cl)CC3)n[nH]c2N1 (stereo not drawn) [Example 11, 3-[1-(3-Chloropyridin-2-yl)piperidin-4-yl]-4-hydroxy-4-(trifluoromethyl)-1,4,5,7-tetrahydro-6H-pyrazolo[3,4-b]pyridin-6-one] the EC50 was 3090 nM.
COc1cccc(N2CCC(c3n[nH]c4c3C(O)(C(F)(F)F)CC(=O)N4)CC2)n1 (stereo not drawn) [Example 12, 4-Hydroxy-3-[1-(6-methoxypyridin-2-yl)piperidin-4-yl]-4-(trifluoromethyl)-1,4,5,7-tetrahydro-6H-pyrazolo[3,4-b]pyridin-6-one] gave an EC50 of 54 nM.
In the case of O=C1CC(O)(C(F)(F)F)c2c(C3CCN(c4cc(C(F)(F)F)ccn4)CC3)n[nH]c2N1 (stereo not drawn) [Example 13, 4-Hydroxy-4-(trifluoromethyl)-3-{1-[4-(trifluoromethyl)pyridin-2-yl]piperidin-4-yl}-1,4,5,7-tetrahydro-6H-pyrazolo[3,4-b]pyridin-6-one], the EC50 is reported as 56 nM.
In the case of O=C1CC(O)(C(F)(F)F)c2c(C3CCN(c4ccc(Cl)cn4)CC3)n[nH]c2N1 (stereo not drawn) [Example 14, 3-[1-(5-Chloropyridin-2-yl)piperidin-4-yl]-4-hydroxy-4-(trifluoromethyl)-1,4,5,7-tetrahydro-6H-pyrazolo[3,4-b]pyridin-6-one], the EC50 is reported as 86 nM.
With O=C1CC(O)(C(F)(F)F)c2c(C3CCN(c4ccc(F)cn4)CC3)n[nH]c2N1 (stereo not drawn) [Example 15, 3-[1-(5-Fluoropyridin-2-yl)piperidin-4-yl]-4-hydroxy-4-(trifluoromethyl)-1,4,5,7-tetrahydro-6H-pyrazolo[3,4-b]pyridin-6-one] the EC50 was 250 nM.
For O=C1CC(O)(C(F)(F)F)c2c(C3CCN(c4ccc5ccccc5n4)CC3)n[nH]c2N1 (stereo not drawn) [Example 16, 4-Hydroxy-3-[1-(quinolin-2-yl)piperidin-4-yl]-4-(trifluoromethyl)-1,4,5,7-tetrahydro-6H-pyrazolo[3,4-b]pyridin-6-one], the EC50 was 96 nM.
In the case of CC(C)Oc1ccc(N2CCC(c3n[nH]c4c3C(O)(C(F)(F)F)CC(=O)N4)CC2)nn1 (stereo not drawn) [Example 17, 4-Hydroxy-3-{1-[6-(propan-2-yloxy)pyridazin-3-yl]piperidin-4-yl}-4-(trifluoromethyl)-1,4,5,7-tetrahydro-6H-pyrazolo[3,4-b]pyridin-6-one], the EC50 is reported as 64 nM.
Compound CC(C)Oc1ccc(N2CCC(c3n[nH]c4c3C(O)(C(F)(F)F)CC(=O)N4)CC2)nn1 (stereo not drawn) [Example 18, 4-Hydroxy-3-{1-[6-(propan-2-yloxy)pyridazin-3-yl]piperidin-4-yl}-4-(trifluoromethyl)-1,4,5,7-tetrahydro-6H-pyrazolo[3,4-b]pyridin-6-one hydrochloride] has an EC50 of 101 nM.
